Measurements reported in patent US5527900A, “N3-alkyl-2',5'-0-silylated-3'-spiro-thymidine derivatives” (Stitching Rega VZW, priority 1991, dated 1996).
Values after ≈ are worked out from the molar mass of the structure shown. Read-outs that look alike come from different tables or passages of the source.

How the values were obtained:
HIV-1 (HTLV-IIIB) = assay: Anti-retrovirus activity: inhibition of HIV-1-induced cytopathogenicity in MT-4 cells; type: cell-based; details: for EC50: Human immunodeficiency virus 1, IIIB, MT4, 120 h; for S.I. (Selectivity Index): CC50/EC50, MT-4 cells
Excerpt: The viruses used were moloney murine sarcoma virus (MSV), HIV-1 (strain HTLV-IIIB, kindly provided by R. C. Gallo and M. Popovic, National Cancer Institute, Bethesda, Md.), HIV-2 (strain LAV-2(ROD)), kindly provided by L. Montagnier (Pasteur Institute, Paris, France), simian immunodeficiency virus (SIV) (strain SIVMAC251, kindly provided by C. Bruck, RIT-Smith-Kline, Rixensart, Belgium).
(§1) In order to evaluate the inhibitory effects against retrovirus-induced cytopathogenicity in MT-4cells, said cells (5×10^5 cells/ml) were suspended in fresh culture medium and infected with HIV-1, HIV-2 or SIOV at 100 times the cell culture infective dose-50 (CCID50) per ml cell suspension (1 CCID50 being the dose infective for 50% of the cell cultures). Then, 100 μl of the infected cell suspension were transferred to microplate wells, mixed with 100 μl of the appropriate dilutions of the test compounds, and further incubated at 37° C. After 5 days, the number of viable cells was determined in a blood cell-counting chamber by trypan blue staining for both virus-infected and mock-infected cell cultures.

in vitro = details: human, mt-4 cells
Protocol: as §1

[1] = Partition coefficient (Pa) between 1-octanol and 10 mM potassium phosphate buffer; type: physicochemical; details: 1-octanol / 10 mM potassium phosphate buffer, pH 7.5, 50 μM; for logD at 50 µM: room temperature
Protocol: Partition of the test compounds between 1-octanol (Merck, Darmstadt, Germany) and 10 mM potassium phosphate buffer, pH, 7.5 (Merck), was measured as described in Balzarini et al., Biochem, Biophys. Res. Commun. 158: 413-422 (1989). Briefly, a 50 μM concentration of the test compound in potassium phosphate buffer was thoroughly mixed with an equal volume of 1-octanol for 30 min at room temperature. Then, the mixture was further equilibrated at room temperature and UV absorption was measured for the aqueous and alcoholic liquid phases. The partition coefficient (Pa) was calculated as the ratio of the compound concentration present in the 1-octanol phase to the compound concentration present in the aqueous phase.

MT-4 cells = assay: Cytotoxicity for mock-infected MT-4 cells; details: for cytotoxicity to MT-4 cells (in words): at 100 μg/ml
Protocol: as §1

MT-4 cell DNA synthesis = assay: Incorporation of radiolabeled precursors into MT-4 cell DNA; type: cell-based; details: Homo sapiens, MT4, MT-4 cells, 20 to 24 hr
Excerpt: (§2) The radiolabeled nucleosides [methyl-^3 H]dThd (specific radioactivity: 40 Ci/mmol), [5-^3 H]dUrd (specific radioactivity: 27 Ci/mmol), [5-^3 H]dCyc (specific radioactivity: 18.2 Ci/mmol) and the radiolabeled amino acid L-[4,5-^3 H]leucine (specific radioactivity: 52 Ci/mmol were derived from the Radiochemcial Centre (Amersham, England); [5-^3 H]Urd (specific radioactivity: 21 Ci/mmol) and [5-^3 H]Cyd (specific radioactivity: 21 Ci/mmol) and were obtained from Moravek Biochemicals Inc. (Brea, Calif.)
(§3) The incorporation of [methyl-^3 H]dThd, [5-^3 H]dUrd, [5-^3 H]dCyd, [5-^3 H]Urd, [5-^3 H]Cyd and L-[4,5-^3 H]1eu into TCA-insoluble MT-4 cell material was measured in wells of a 96-well microtiter plate (Falcon-3072, Becton-Dickinson, New Jersey). To each well were added 10^5 MT-4 cells, 0.25 μCi of the radiolabeled precursor and a given amount of test compound. The cells were allowed to proliferate for 20 to 24 hr at 37° C. in a humidified, CO2 -controlled atmosphere. At the end of this incubation period, the contents of the wells (200 μl) were brought onto 25-mm glass fiber filters (type A/E, Gelman Instrument Company, Ann Arbor, Mich.), and mounted on a Millipore 3025 sampling manifold apparatus. The filters were washed twice with 2 ml and 5 ml cold NaCl/Pi (phosphte-buffered saline), twice with 2 and 5 ml cold 10% trichloroacetic acid (TCA), twice with 5 and 7.5 ml cold 5% TCA, and twice with 1 ml cold ethanol.

MT-4 cell RNA synthesis = assay: Incorporation of radiolabeled precursors into MT-4 cell RNA; type: cell-based; details: Homo sapiens, MT4, MT-4 cells, 20 to 24 hr
Excerpt: as §2, §3

[2] = test system: MT-4 cell protein synthesis; assay: Incorporation of radiolabeled leucine into MT-4 cell protein; type: cell-based; details: Homo sapiens, MT4; MT-4 cells, 20 to 24 hr; read-out: IC50, L-[4,5-3H]leucine incorporation
Excerpt: as §2, §3

[3] = test system: MT-4 cell DNA, RNA or protein synthesis; assay: Incorporation of radiolabeled DNA, RNA or protein precursors into TCA-insoluble MT-4 cell material (summary in words); type: cell-based; details: for inhibition of incorporation of dThd, dUrd, dCyd, Urd, Cyd or leucine: at 100 μg/ml
Excerpt: as §2, §3

HIV-1 = assay: Antiviral activity upon delayed addition to HIV-1-infected MT-4 cells; type: cell-based
Protocol: as §1
Mt-4 cells were suspended in culture medium, infected with HIV-1 and brought into microplate wells as described above. […] After 5 days, the number of viable cells was determined and the EC50 and CC50 values for the test compounds were defined as described in example 1.

HIV-2 strain (EHO) = assay: Activity against HIV-2 strain EHO; type: cell-based
[4] = read-out: IC50, [5-3H]dCyd incorporation
[5] = read-out: IC50, [5-3H]dUrd incorporation
[6] = read-out: IC50, [methyl-3H]dThd incorporation
[7] = read-out: IC50, [5-3H]Cyd incorporation
[8] = read-out: IC50, [5-3H]Urd incorporation

| SMILES | CC50 at 120 h (in vitro) | logD at 50 µM [1] | EC50 (HIV-1 (HTLV-IIIB)) | S.I. (Selectivity Index) (HIV-1 (HTLV-IIIB); Table 1) | presence in the n-octanol phase compared to the aqueous phase [1] | also measured |
| --- | --- | --- | --- | --- | --- | --- |
| Cc1cn([C@@H]2O[C@H](CO)[C@@]3(OS(=O)(=O)C=C3N)[C@H]2O)c(=O)[nH]c1=O [Compound 1] | > 100 µg/mL | -0.932 |  |  |  | EC50 (HIV-1 (HTLV-IIIB); Table 1, HIV-1 in MT-4 cells, 5 days, read-out: EC50): > 100 µg/mL |
| Cc1cn([C@@H]2O[C@H](CO)[C@@]3(OS(=O)(=O)C=C3N)[C@H]2O[Si](C)(C)C(C)(C)C)c(=O)[nH]c1=O [Compound 2] | 106 µg/mL (≈ 223 µM) | > 1.3 | > 40 µg/mL | < 2,5 | more than 95% |  |
| Cc1cn([C@@H]2O[C@H](CO[Si](C)(C)C(C)(C)C)[C@@]3(OS(=O)(=O)C=C3N)[C@H]2O)c(=O)[nH]c1=O [Compound 3] | 45 µg/mL (≈ 94.6 µM) | > 1.3 | > 20 µg/mL | < 2 | more than 95% |  |
| Cc1cn([C@@H]2O[C@H](COC(=O)c3ccccc3)[C@@]3(OS(=O)(=O)C=C3N)[C@H]2O[Si](C)(C)C(C)(C)C)c(=O)[nH]c1=O [Compound 4] | 20 µg/mL (≈ 34.5 µM) | > 1.3 | > 8 µg/mL | < 2,5 | more than 95% |  |
| C=CCn1c(=O)c(C)cn([C@@H]2O[C@H](CO[Si](C)(C)C(C)(C)C)[C@@]3(OS(=O)(=O)C=C3N)[C@H]2O[Si](C)(C)C(C)(C)C)c1=O [Compound 8, {1-[2', 5'-Bis-O-(tert-butyldimethylsilyl)-β-D-ribofuranosyl]-3-N-allyl-thymine}-3'-spiro-5"{4"-amino-1", 2"-oxathiole-2", 2"-dioxide}] | > 200 µg/mL | > 1.3 | 0.141 µg/mL (≈ 0.224 µM) | > 1418 | more than 95% | cytotoxicity to MT-4 cells (in words) (MT-4 cells): not cytotoxic; IC50 (MT-4 cell DNA synthesis; [4]): > 100 µg/mL; IC50 (MT-4 cell DNA synthesis; [5]): > 100 µg/mL; IC50 (MT-4 cell DNA synthesis; [6]): > 100 µg/mL; IC50 (MT-4 cell RNA synthesis; [7]): > 100 µg/mL; IC50 (MT-4 cell RNA synthesis; [8]): > 100 µg/mL; IC50 [2]: > 100 µg/mL; inhibition of incorporation of dThd, dUrd, dCyd, Urd, Cyd or leucine [3]: did not markedly inhibit |
| CCc1cn([C@@H]2O[C@H](CO[Si](C)(C)C(C)(C)C)[C@@]3(OS(=O)(=O)C=C3N)[C@H]2O[Si](C)(C)C(C)(C)C)c(=O)[nH]c1=O [Compound 10, {1-[2', 5'-Bis-O-(tert-butyldimethylsilyl)-β-D-ribofuranosyl]-5-ethyl-uracil}-3'-spiro-5"-{4"-amino-1",2"-oxathiole-2",2"-dioxide}] | 3.2 µg/mL (≈ 5.3 µM) |  | 0.038 µg/mL (≈ 0.0629 µM) | 82 |  | decrease of antiviral activity on delayed addition (HIV-1; addition delayed by 17-24 hours, data not shown): 10 fold; antiviral activity on delayed addition (HIV-1; addition delayed by 41 to 48 hours): almost totally lost |
| CC(C)(C)[Si](C)(C)OC[C@H]1O[C@@H](n2ccc(=O)[nH]c2=O)[C@H](O[Si](C)(C)C(C)(C)C)[C@]12OS(=O)(=O)C=C2N [Compound 11, {1-[2', 5'-Bis-O-(tert-butyldimethylsilyl)-β-D-ribofuranosyl]uracil}-3'-spiro-5"-{4"-amino-1", 2"-oxathiole-2", 2"-dioxide}] | 8.3 µg/mL (≈ 14.4 µM) | > 1.3 | 0.114 µg/mL (≈ 0.198 µM) | 73 | more than 95% | inhibition of MT-4 cell proliferation (in words) (MT-4 cells): inhibitory to MT-4 cell proliferation; cytotoxicity to MT-4 cells (in words) (MT-4 cells): not cytotoxic; IC50 (MT-4 cell DNA synthesis; [4]): 18 µg/mL (≈ 31.3 µM); IC50 (MT-4 cell DNA synthesis; [5]): 12 µg/mL (≈ 20.8 µM); IC50 (MT-4 cell DNA synthesis; [6]): 38 µg/mL (≈ 66 µM); IC50 (MT-4 cell RNA synthesis; [7]): 11 µg/mL (≈ 19.1 µM); IC50 (MT-4 cell RNA synthesis; [8]): 11 µg/mL (≈ 19.1 µM); IC50 [2]: 14 µg/mL (≈ 24.3 µM); inhibition of incorporation of precursors relative to inhibition of MT-4 cell proliferation ([3]; Table 2 discussion): equally inhibitory; preferential inhibition of incorporation of one precursor over the others ([3]; Table 2 discussion): neither; inhibition of incorporation of dThd, dUrd, dCyd, Urd, Cyd or leucine [3]: did not markedly inhibit |
| CC(C)(C)[Si](C)(C)OC[C@H]1O[C@@H](n2cc(Br)c(=O)[nH]c2=O)[C@H](O[Si](C)(C)C(C)(C)C)[C@]12OS(=O)(=O)C=C2N [Compound 12] | 2.35 µg/mL (≈ 3.59 µM) |  | 0.206 µg/mL (≈ 0.315 µM) | 11 |  | activity against HIV-2 strain (EHO) (HIV-2 strain (EHO)): inactive |
| C=CCn1c(=O)ccn([C@@H]2O[C@H](CO[Si](C)(C)C(C)(C)C)[C@@]3(OS(=O)(=O)C=C3N)[C@H]2O[Si](C)(C)C(C)(C)C)c1=O [Compound 13, {1-[2', 5'-Bis-O-(tert-butyldimethylsilyl)-62 -D-ribofuranosyl]-3-N-allyl-uracil}-3'-spiro-5"-{4"-amino-1", 2"-oxathiole-2", 2"-dioxide}] | 5.31 µg/mL (≈ 8.62 µM) |  | 0.364 µg/mL (≈ 0.591 µM) | 15 |  |  |
| CC(=O)Nc1ccn([C@@H]2O[C@H](CO[Si](C)(C)C(C)(C)C)[C@@]3(OS(=O)(=O)C=C3N)[C@H]2O[Si](C)(C)C(C)(C)C)c(=O)n1 [Compound 15, {4-N-Acetyl-1-[2', 5'-bis-O-(tert-butyldimethylsilyl)-β-D-ribofuranosyl]cytosine}-3'-spiro-5"-{4"-amino-1",2"-oxathiole-2",2"-dioxide}] | 7.5 µg/mL (≈ 12.2 µM) | > 1.3 | 0.097 µg/mL (≈ 0.157 µM) | 77 | more than 95% |  |
| CC(C)(C)[Si](C)(C)OC[C@H]1O[C@@H](n2cnc3c(N)ncnc32)[C@H](O[Si](C)(C)C(C)(C)C)[C@]12OS(=O)(=O)C=C2N [Compound 17] | 7.3 µg/mL (≈ 12.2 µM) |  | 0.162 µg/mL (≈ 0.271 µM) | 45 |  | activity against HIV-2 strain (EHO) (HIV-2 strain (EHO)): inactive |
